In the SangsterLogP compilation one finds logP data, which are given here for 41 compounds.

Structures are written as SMILES.

As for `CCC(C)CNC(=O)CC(O)C(CC(C)C)NC(=O)C(CCCCNP(=O)(Oc1ccccc1)Oc1ccccc1)NC(=O)C(Cc1ccc2ccccc2c1)Cc1cccc2ccccc12` (stereo unspecified), the logP (as a rule, a log measure of how a compound divides between an organic and an aqueous phase) came out at 7.88.

In turn, `CC(C)CC(NC(=O)CC(O)C(CC(C)C)NC(CCCCNC(=N)N[N+](=O)[O-])NC(=O)C(Cc1ccc2ccccc2c1)Cc1cccc2ccccc12)C(=O)NCc1ccccc1` (stereo unspecified) showed a logP of 5.51.

Compound `CCC(C)CNC(=O)CC(O)C(CC1CCCCC1)NC(=O)C(CCCCNC(=S)NC)NC(=O)C(Cc1ccc2ccccc2c1)Cc1cccc2ccccc12` (stereo unspecified) gave a logP of 6.63.

Consider `CCC(C)CNC(=O)CC(O)C(CC(C)C)NC(=O)C(CC=CCNC(C)=O)NC(=O)C(Cc1ccc2ccccc2c1)Cc1cccc2ccccc12` (stereo unspecified), for which the logP was determined as 5.56.

For `CC(C)CC(NC(=O)CC(O)C(CC(C)C)NC(=O)C(CCCCNC(=O)OCc1ccccc1)NC(=O)C(Cc1ccc2ccccc2c1)Cc1cccc2ccccc12)C(=O)NCc1ccccc1` (stereo unspecified), the logP turned out to be 7.69.

Consider `CSC(=NC#N)NCCCCC(NC(=O)C(Cc1ccc2ccccc2c1)Cc1cccc2ccccc12)C(=O)NC(CC(C)C)C(O)CC(=O)NCCN1CCOCC1` (stereo unspecified), for which the logP was 4.67.

For the compound `CCC(C)CNC(=O)CC(O)C(CC(C)C)NC(=O)C(CC=CCNC(=S)NC)NC(=O)C(Cc1ccc2ccccc2c1)Cc1cccc2ccccc12` (stereo unspecified), the lipophilicity (logP) worked out at 5.23.

`CCC(C)CNC(=O)CC(O)C(CC(C)C)NC(=O)C(CCCCNC(C)=O)NC(=O)C(Cc1ccc2ccccc2c1)Cc1cccc2ccccc12` (stereo unspecified) displayed a lipophilicity (logP) of 4.38.

`N=C(NCC#CCC(NC(=O)C(Cc1cccc2ccccc12)Cc1cccc2ccccc12)C(=O)NC(CC1CCCCC1)C(O)CC(=O)NCCN1CCOCC1)N[N+](=O)[O-]` (stereo unspecified) yielded a logP of 4.73.

As for `O=C(CC(O)C(CC1CCCCC1)NC(=O)C(NC(=O)C(Cc1ccccc1)NS(=O)(=O)N1CCOCC1)C1=CN=N1)NCCN1CCOCC1` (stereo unspecified), the logP came out at 2.25.

Turning to `CCC(C)CNC(=O)CC(O)C(CC(C)C)NC(=O)C(CCCCNC(=S)NC)NC(=O)C(Cc1ccc2ccccc2c1)Cc1cccc2ccccc12` (stereo unspecified), the logP was 5.71.

For `CNC(=S)NCC#CCC(NC(=O)C(Cc1ccccc1)NS(=O)(=O)N1CCOCC1)C(=O)NC(CC1CCCCC1)C(O)CC(=O)NCCN1CCOCC1` (stereo unspecified), the logP came to 2.9.

Turning to `CCC(C)CNC(=O)CC(O)C(CC(C)C)NC(=O)C(CC#CCNC(C)=O)NC(=O)C(Cc1ccc2ccccc2c1)Cc1cccc2ccccc12` (stereo unspecified), the logP was 5.32.

The compound `CC(C)CC(NC(=O)C(CCCCNC(=O)OCc1ccccc1)NC(=O)C(Cc1ccccc1)NS(=O)(=O)N1CCOCC1)C(=O)C(F)(F)C(=O)NCCN1CCOCC1` (stereo unspecified) came in with a logP of 2.32.

Compound `CNC(=S)NCCCCC(NC(=O)C(Cc1ccc2ccccc2c1)Cc1cccc2ccccc12)C(=O)NC(CC(C)C)C(O)C(F)(F)C(=O)NCCN1CCOCC1` (stereo unspecified) showed a logP of 5.5.

For `CC(C)CC(NC(=O)C(CCCCNC(=N)N[N+](=O)[O-])NC(=O)C(Cc1cccc2ccccc12)Cc1cccc2ccccc12)C(O)CC(=O)NCCN1CCOCC1` (stereo unspecified), the logP worked out at 4.09.

`CNC(=S)NCCCCC(C(=O)NC(CC1CCCCC1)C(O)C(F)(F)C(=O)NCCN1CCOCC1)C(=O)C(Cc1ccccc1)NS(=O)(=O)N1CCOCC1` (stereo unspecified) displayed a logP of 2.93.

`CC(C)CC(NC(=O)C(CCCCNC(=N)N[N+](=O)[O-])NC(=O)C(CC(=O)N1CCOCC1)Cc1cccc2ccccc12)C(O)CC(=O)NCCN1CCOCC1` (stereo unspecified): the logP came to 1.95.

As for `CNC(=S)NCCCCC(NC(=O)C(Cc1ccccc1)CS(=O)(=O)C(C)(C)C)C(=O)NC(CC1CCCCC1)C(O)CC(=O)NCCN1CCOCC1` (stereo unspecified), the logP was 2.64.

Regarding `CCC(C)CNC(=O)CC(O)C(CC(C)C)NC(=O)C(CCCCCCNC(=S)NC)NC(=O)C(Cc1ccc2ccccc2c1)Cc1cccc2ccccc12` (stereo unspecified), the logP came out at 5.64.

Turning to `CNC(=S)NCCCCC(NC(=O)C(CC(=O)N1CCOCC1)Cc1cccc2ccccc12)C(=O)NC(CC(C)C)C(O)CC(=O)NCCN1CCOCC1` (stereo unspecified), the log partition coefficient (logP) was found to be 2.43.

As for `CCC(C)CNC(=O)CC(O)C(CC(C)C)NC(=O)C(CCCCN)NC(=O)C(Cc1ccc2ccccc2c1)Cc1cccc2ccccc12` (stereo unspecified), the logP was found to be 5.25.

Compound `CCC(C)CNC(=O)CC(O)C(CC(C)C)NC(=O)C(CCCCCNC(=N)N[N+](=O)[O-])NC(=O)C(Cc1ccc2ccccc2c1)Cc1cccc2ccccc12` (stereo unspecified) registered a logP of 5.1.

The compound `CNC(=S)NCCCCC(NC(=O)C(Cc1ccc2ccccc2c1)Cc1cccc2ccccc12)C(=O)NC(CC(C)C)C(O)CC(=O)NCCN1CCOCC1` (stereo unspecified) displayed a logP of 3.91.

In turn, `CNC(=S)NCCCCC(NC(=O)C(CC(=O)N1CCOCC1)Cc1cccc2ccccc12)C(=O)NC(CC1CCCCC1)C(O)CC(=O)NCCN1CCOCC1` (stereo unspecified) returned a log partition coefficient (logP) of 1.68.

`CCC(C)CNC(=O)CC(O)C(CC(C)C)NC(=O)C(CCCCNS(=O)(=O)c1ccc(C)cc1)NC(=O)C(Cc1ccc2ccccc2c1)Cc1cccc2ccccc12` (stereo unspecified) came in with a logP of 6.7.

Take `CNC(=S)NCCCCC(NC(=O)C(Cc1ccccc1)NS(=O)(=O)N1CCOCC1)C(=O)NC(CC1CCCCC1)C(O)CC(=O)NCCN1CCOCC1` (stereo unspecified): the logP stood at 2.26.

As for `CCC(C)CNC(=O)CC(O)C(CC(C)C)NC(=O)C(CCCCNC(=S)Nc1ccccc1)NC(=O)C(Cc1ccc2ccccc2c1)Cc1cccc2ccccc12` (stereo unspecified), the logP turned out to be 6.6.

As to `CCC(C)CNC(=O)CC(O)C(CC(C)C)NC(=O)C(CCCCNC(=O)NC)NC(=O)C(Cc1ccc2ccccc2c1)Cc1cccc2ccccc12` (stereo unspecified), the logP came to 5.63.

The compound `O=CNCC#CCC(NC(=O)C(Cc1cccc2ccccc12)Cc1cccc2ccccc12)C(=O)NC(CC1CCCCC1)C(O)CC(=O)NCCN1CCOCC1` (stereo unspecified) yielded a logP of 5.44. The logP values of the last two compounds are within 0.2 log units of each other.

`CCC(C)CNC(=O)C(F)(F)C(O)C(CC(C)C)NC(=O)C(CCCCNC(=NC#N)SC)NC(=O)C(Cc1ccc2ccccc2c1)Cc1cccc2ccccc12` (stereo unspecified) returned a logP of 5.51.

As for `CNC(=S)NCC#CCC(NC(=O)C(Cc1ccc2ccccc2c1)Cc1cccc2ccccc12)C(=O)NC(CC1CCCCC1)C(O)CC(=O)NCCN1CCOCC1` (stereo unspecified), the logP was 5.44. This logP and that of the compound before are within 0.2 log units of each other.

`CC(=O)NCC#CCC(NC(=O)C(Cc1ccccc1)NS(=O)(=O)N1CCOCC1)C(=O)NC(CC1CCCCC1)C(O)CC(=O)NCCN1CCOCC1` (stereo unspecified): the logP is 2.12.

`CCC(C)CNC(=O)CC(O)C(CC(C)C)NC(=O)C(CCCCCNC(=S)NC)NC(=O)C(Cc1ccc2ccccc2c1)Cc1cccc2ccccc12` (stereo unspecified) came in with a logP of 5.41.

In turn, `CC(C)(C)OC(=O)NCC#CCC(NC(=O)C(Cc1ccc2ccccc2c1)Cc1cccc2ccccc12)C(=O)NC(CC1CCCCC1)C(O)CC(=O)NCCN1CCOCC1` (stereo unspecified) yielded a log partition coefficient (logP) of 6.

In turn, `CNC(=S)NCCCCC(NC(=O)C(Cc1ccc2ccccc2c1)Cc1cccc2ccccc12)C(=O)NC(CC(C)C)C(O)CC(=O)NC(CC(C)C)C(=O)NCc1ccccc1` (stereo unspecified) displayed a logP of 6.7.

`CNC(=S)NCCCCC(NC(=O)C(Cc1ccc2ccccc2c1)Cc1cccc2ccccc12)C(=O)NC(CC1CCCCC1)C(O)CC(=O)NCCN1CCOCC1` (stereo unspecified) showed a logP of 5.46.

In turn, `CCC(C)CNC(=O)CC(O)C(CC(C)C)NC(=O)C(CCCCn1cccc1)NC(=O)C(CC1=Cc2ccccc2C1)Cc1cccc2ccccc12` (stereo unspecified) yielded a logP of 7.21.

As for `CCC(C)CNC(=O)CC(O)C(CC(C)C)NC(=O)C(CCCn1cccc1)NC(=O)C(Cc1ccc2ccccc2c1)Cc1cccc2ccccc12` (stereo unspecified), the lipophilicity (logP) worked out at 7.09.

As for `CNC(=S)NCCCCC(NC(=O)C(Cc1ccccc1)NS(=O)(=O)N(C)C)C(=O)NC(CC1CCCCC1)C(O)CC(=O)NCCN1CCOCC1` (stereo unspecified), the logP was found to be 2.41.

The compound `CCC(C)CC(=O)CC(O)C(CC(C)C)NC(=O)C(CCCCNC(N)=O)NC(=O)C(Cc1ccc2ccccc2c1)Cc1cccc2ccccc12` (stereo unspecified) had a logP of 5.31.
